Source: the NIST ThermoML archive (doi:10.1007/s10765-009-0667-2)

Assay: xn = mol fraction of the nth substance listed
Settings: 101 kPa, Liquid; for mass density: Vibrating tube method

c1ccccc1 [benzene] + C1CCCCCCC1
x1 = 1
Settings | mass density [kg/m3] | viscosity [mPa·s]
308.15 K | 862.9 | 0.5272
313.15 K | 857.7 | 0.4942

c1ccccc1 [benzene] + CCCCCCC
Settings | mass density, 308.15 K [kg/m3] | mass density, 313.15 K [kg/m3] | viscosity, 308.15 K [mPa·s] | viscosity, 313.15 K [mPa·s]
x1 = 0.1099 | 683.6 | 679.4 | 0.3518 | 0.3342
x1 = 0.2052 | 695.3 | 691.1 | 0.3593 | 0.3356
x1 = 0.2896 | 706.6 | 702.4 | 0.3562 | 0.3387
x1 = 0.4212 | 726.5 | 722.1 | 0.3632 | 0.345
x1 = 0.5078 | 740.9 | 736.4 | 0.3724 | 0.3534
x1 = 0.6087 | 760 | 755.4 | 0.3925 | 0.3667
x1 = 0.7263 | 785.5 | 780.8 | 0.4094 | 0.3879
x1 = 0.7936 | 801.9 | 797.1 | 0.4262 | 0.4031
x1 = 0.8987 | 830.6 | 825.6 | 0.4734 | 0.4408
x1 = 1 | 862.9 | 857.7 | 0.5272 | 0.4942

c1ccccc1 [benzene] + CCc1ccccc1
x1 = 1
Settings | mass density [kg/m3] | viscosity [mPa·s]
308.15 K | 862.9 | 0.5272
313.15 K | 857.7 | 0.4942

c1ccccc1 [benzene] + Cc1ccccc1
Settings | mass density, 308.15 K [kg/m3] | mass density, 313.15 K [kg/m3] | viscosity, 308.15 K [mPa·s] | viscosity, 313.15 K [mPa·s]
x1 = 0.0403 | 853.1 | 848.6 | 0.4943 | 0.468
x1 = 0.1393 | 853.7 | 849.1 | 0.4998 | 0.4681
x1 = 0.2551 | 854.5 | 849.9 | 0.4968 | 0.4693
x1 = 0.3116 | 855 | 850.3 | 0.4968 | 0.469
x1 = 0.3863 | 855.7 | 850.9 | 0.4977 | 0.4705
x1 = 0.5033 | 856.6 | 851.8 | 0.503 | 0.4747
x1 = 0.6139 | 857.8 | 852.9 | 0.5078 | 0.4785
x1 = 0.7301 | 859.1 | 854.1 | 0.5166 | 0.4813
x1 = 0.8551 | 860.8 | 855.7 | 0.5227 | 0.487
x1 = 1 | 862.9 | 857.7 | 0.5272 | 0.4942

C1CCCCCCC1 [cyclooctane] + CCCCCCC
Settings | mass density, 308.15 K [kg/m3] | mass density, 313.15 K [kg/m3] | viscosity, 308.15 K [mPa·s] | viscosity, 313.15 K [mPa·s]
x2 = 0 | 823.6 | 819.7 | 1.803 | 1.636
x2 = 0.0938 | 807.7 | 803.8 | 1.405 | 1.288
x2 = 0.1897 | 793 | 789.1 | 1.125 | 1.044
x2 = 0.2896 | 777.5 | 773.6 | 0.9246 | 0.8605
x2 = 0.3979 | 760.8 | 756.8 | 0.7613 | 0.7127
x2 = 0.4949 | 746.1 | 742.2 | 0.6608 | 0.6207
x2 = 0.5964 | 730.9 | 726.9 | 0.5725 | 0.5389
x2 = 0.6919 | 716.7 | 712.7 | 0.5028 | 0.4754
x2 = 0.7795 | 703.6 | 699.7 | 0.4487 | 0.4256
x2 = 0.8934 | 686.9 | 682.8 | 0.4002 | 0.3754

C1CCCCCCC1 [cyclooctane] + CCc1ccccc1
Settings | mass density, 308.15 K [kg/m3] | mass density, 313.15 K [kg/m3] | viscosity, 308.15 K [mPa·s] | viscosity, 313.15 K [mPa·s]
x2 = 0 | 823.6 | 819.7 | 1.803 | 1.636
x2 = 0.0907 | 824.8 | 820.9 | 1.487 | 1.356
x2 = 0.2033 | 827.1 | 823.2 | 1.206 | 1.11
x2 = 0.3072 | 829.5 | 825.6 | 1.022 | 0.9578
x2 = 0.3701 | 831.2 | 827.2 | 0.9433 | 0.8765
x2 = 0.4761 | 834.2 | 830.2 | 0.8369 | 0.7835
x2 = 0.5798 | 837.5 | 833.4 | 0.7568 | 0.7089
x2 = 0.7008 | 841.7 | 837.6 | 0.6736 | 0.6403
x2 = 0.7922 | 845.1 | 840.9 | 0.6351 | 0.5979
x2 = 0.8908 | 849 | 844.8 | 0.5958 | 0.5629

C1CCCCCCC1 [cyclooctane] + Cc1ccccc1
Settings | mass density, 308.15 K [kg/m3] | mass density, 313.15 K [kg/m3] | viscosity, 308.15 K [mPa·s] | viscosity, 313.15 K [mPa·s]
x2 = 0 | 823.6 | 819.7 | 1.803 | 1.636
x2 = 0.0997 | 824.6 | 820.7 | 1.443 | 1.326
x2 = 0.1951 | 826 | 822.1 | 1.198 | 1.112
x2 = 0.3032 | 828.1 | 824.1 | 1.003 | 0.9333
x2 = 0.3904 | 830 | 826 | 0.8748 | 0.8203
x2 = 0.4868 | 832.5 | 828.5 | 0.7834 | 0.701
x2 = 0.5898 | 835.6 | 831.4 | 0.6981 | 0.6579
x2 = 0.6919 | 839.2 | 834.9 | 0.6266 | 0.5912
x2 = 0.8003 | 843.4 | 839.1 | 0.5673 | 0.5364
x2 = 0.888 | 847.3 | 842.9 | 0.5361 | 0.5033

C1CCCCCCC1 [cyclooctane] + c1ccccc1
Settings | mass density, 308.15 K [kg/m3] | mass density, 313.15 K [kg/m3] | viscosity, 308.15 K [mPa·s] | viscosity, 313.15 K [mPa·s]
x2 = 0 | 823.6 | 819.7 | 1.803 | 1.636
x2 = 0.1004 | 824.9 | 821 | 1.494 | 1.368
x2 = 0.1826 | 826.4 | 822.4 | 1.294 | 1.193
x2 = 0.3035 | 829 | 824.9 | 1.072 | 0.993
x2 = 0.408 | 831.9 | 827.6 | 0.9222 | 0.859
x2 = 0.5122 | 835.2 | 830.9 | 0.8085 | 0.7548
x2 = 0.5243 | 835.7 | 831.4 | 0.7963 | 0.7437
x2 = 0.6891 | 842.7 | 838.1 | 0.6667 | 0.6274
x2 = 0.7904 | 848.1 | 843.3 | 0.6042 | 0.5677
x2 = 0.9001 | 855.1 | 850.1 | 0.5651 | 0.5263

CCc1ccccc1 [ethylbenzene] + C1CCCCCCC1
x1 = 1
Settings | mass density [kg/m3] | viscosity [mPa·s]
308.15 K | 853.7 | 0.5652
313.15 K | 849.5 | 0.5294

CCc1ccccc1 [ethylbenzene] + CCCCCCC
Settings | mass density, 308.15 K [kg/m3] | mass density, 313.15 K [kg/m3] | viscosity, 308.15 K [mPa·s] | viscosity, 313.15 K [mPa·s]
x2 = 0 | 853.7 | 849.5 | 0.5652 | 0.5294
x2 = 0.1034 | 831.5 | 827.4 | 0.5217 | 0.4945
x2 = 0.2048 | 810.6 | 806.5 | 0.4925 | 0.4631
x2 = 0.2931 | 793 | 788.8 | 0.4625 | 0.4393
x2 = 0.3754 | 777.2 | 773 | 0.44 | 0.419
x2 = 0.488 | 756.3 | 752.2 | 0.4195 | 0.3986
x2 = 0.5929 | 737.7 | 733.6 | 0.4061 | 0.3807
x2 = 0.6899 | 720.9 | 716.7 | 0.3859 | 0.3669
x2 = 0.8051 | 701.8 | 697.7 | 0.369 | 0.3516
x2 = 0.8979 | 687.1 | 683 | 0.3659 | 0.3425

CCc1ccccc1 [ethylbenzene] + Cc1ccccc1
Settings | mass density, 308.15 K [kg/m3] | mass density, 318.15 K [kg/m3] | viscosity, 308.15 K [mPa·s] | viscosity, 313.15 K [mPa·s]
x2 = 0 | 853.7 | 849.5 | 0.5652 | 0.5294
x2 = 0.0424 | 853.7 | 849.5 | 0.5587 | 0.5306
x2 = 0.128 | 853.7 | 849.4 | 0.5587 | 0.525
x2 = 0.2164 | 853.6 | 849.3 | 0.5471 | 0.5185
x2 = 0.2928 | 853.6 | 849.3 | 0.5408 | 0.5124
x2 = 0.393 | 853.5 | 849.2 | 0.5379 | 0.5186
x2 = 0.4922 | 853.4 | 849.1 | 0.5349 | 0.5022
x2 = 0.5716 | 853.4 | 849 | 0.5243 | 0.4968
x2 = 0.7107 | 853.2 | 848.8 | 0.5125 | 0.4853
x2 = 0.8425 | 853 | 848.6 | 0.5108 | 0.4781

CCc1ccccc1 [ethylbenzene] + c1ccccc1
Settings | mass density, 308.15 K [kg/m3] | mass density, 313.15 K [kg/m3] | viscosity, 308.15 K [mPa·s] | viscosity, 313.15 K [mPa·s]
x2 = 0 | 853.7 | 849.5 | 0.5652 | 0.5294
x2 = 0.0877 | 854.1 | 849.8 | 0.5584 | 0.5282
x2 = 0.1855 | 854.6 | 850.2 | 0.5563 | 0.5234
x2 = 0.295 | 855.2 | 850.8 | 0.5472 | 0.5172
x2 = 0.4137 | 856 | 851.5 | 0.5392 | 0.5096
x2 = 0.498 | 856.6 | 852.1 | 0.5382 | 0.508
x2 = 0.5965 | 857.5 | 852.8 | 0.5382 | 0.5039
x2 = 0.7108 | 858.7 | 853.9 | 0.5308 | 0.4996
x2 = 0.7904 | 859.7 | 854.8 | 0.5263 | 0.4954
x2 = 0.8983 | 861.2 | 856.2 | 0.5309 | 0.4949

CCCCCCC [heptane] + C1CCCCCCC1
x1 = 1
Settings | mass density [kg/m3] | viscosity [mPa·s]
308.15 K | 671.3 | 0.3497
313.15 K | 667.1 | 0.3329

CCCCCCC [heptane] + CCc1ccccc1
x1 = 1
Settings | mass density [kg/m3] | viscosity [mPa·s]
308.15 K | 671.3 | 0.3497
313.15 K | 667.1 | 0.3329

CCCCCCC [heptane] + Cc1ccccc1
x1 = 1
Settings | mass density [kg/m3] | viscosity [mPa·s]
308.15 K | 671.3 | 0.3497
313.15 K | 667.1 | 0.3329

CCCCCCC [heptane] + c1ccccc1
x2 = 0
Settings | mass density [kg/m3] | viscosity [mPa·s]
308.15 K | 671.3 | 0.3497
313.15 K | 667.1 | 0.3329

Cc1ccccc1 [toluene] + C1CCCCCCC1
x1 = 1
Settings | mass density [kg/m3] | viscosity [mPa·s]
308.15 K | 852.8 | 0.494
313.15 K | 848.3 | 0.4676

Cc1ccccc1 [toluene] + CCCCCCC
Settings | mass density, 308.15 K [kg/m3] | mass density, 313.15 K [kg/m3] | viscosity, 308.15 K [mPa·s] | viscosity, 313.15 K [mPa·s]
x2 = 0 | 852.8 | 848.3 | 0.494 | 0.4676
x2 = 0.0901 | 830.9 | 826.5 | 0.4631 | 0.4392
x2 = 0.1949 | 807 | 802.6 | 0.4406 | 0.4129
x2 = 0.299 | 786.6 | 782.2 | 0.415 | 0.3944
x2 = 0.3959 | 765.9 | 761.6 | 0.3967 | 0.377
x2 = 0.4836 | 749.6 | 745.4 | 0.3861 | 0.3668
x2 = 0.5809 | 732.8 | 728.6 | 0.3811 | 0.3562
x2 = 0.6809 | 716.6 | 712.5 | 0.3666 | 0.3488
x2 = 0.792 | 699.8 | 695.6 | 0.3575 | 0.341
x2 = 0.8884 | 686.1 | 682 | 0.3605 | 0.3367

Cc1ccccc1 [toluene] + CCc1ccccc1
x1 = 1
Settings | mass density [kg/m3] | viscosity [mPa·s]
308.15 K | 852.8 | 0.494
313.15 K | – | 0.4755
318.15 K | 848.3 | –
